Assays:
[1] = target: RNA 5'-monophosphate methyltransferase (Homo sapiens) (UniProt Q7Z5W3); settings: at 50 µM
[2] = target: Sodium channel protein type 2 subunit alpha (Homo sapiens, UniProt Q99250); settings: at 10 µM
[3] = target: Sigma non-opioid intracellular receptor 1 (Homo sapiens, UniProt Q99720); test: Selectivity interaction (GPCR panel (PDSP screen)) EUB0000103c SIGMAR1
[4] = target: Sigma intracellular receptor 2 (Homo sapiens, UniProt Q5BJF2); test: Selectivity interaction (GPCR panel (PDSP screen)) EUB0000103c TMEM97
[5] = target: Histone-arginine methyltransferase CARM1 (Homo sapiens) (UniProt Q86X55)
[6] = target: Protein arginine N-methyltransferase 6 (Homo sapiens, UniProt Q96LA8)
[7] = target: T1, Bromodomain-containing protein 4 (Homo sapiens, UniProt O60885); test: Selectivity interaction (ITC) EUB0000205c BRD4
[8] = target: T2, Adenosine receptor A1 (Homo sapiens) (UniProt P30542); settings: at 10 µM
T2 sequence (whole entry): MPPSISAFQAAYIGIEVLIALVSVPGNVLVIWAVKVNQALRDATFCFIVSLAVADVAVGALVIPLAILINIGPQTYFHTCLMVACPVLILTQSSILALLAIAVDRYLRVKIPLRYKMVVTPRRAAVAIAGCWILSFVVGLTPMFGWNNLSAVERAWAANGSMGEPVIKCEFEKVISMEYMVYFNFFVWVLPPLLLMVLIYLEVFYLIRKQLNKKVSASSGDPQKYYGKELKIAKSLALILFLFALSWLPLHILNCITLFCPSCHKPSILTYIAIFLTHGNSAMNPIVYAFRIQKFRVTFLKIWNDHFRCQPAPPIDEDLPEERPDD

[9] = target: Kappa-type opioid receptor (Homo sapiens, UniProt P41145); settings: at 10 µM
[10] = target: Sodium-dependent noradrenaline transporter (Homo sapiens, UniProt P23975); settings: at 10 µM
[11] = target: BMP-2-inducible protein kinase (Homo sapiens) (UniProt Q9NSY1); test: Selectivity interaction (KinomeScan (DiscoverX)) EUB0000717a BMP2K; settings: at 1 µM
[12] = target: T3, Cyclin-G-associated kinase (Homo sapiens) (UniProt O14976); test: Selectivity interaction (KinomeScan (DiscoverX)) EUB0000717a GAK; settings: at 1 µM
T3 sequence (whole entry): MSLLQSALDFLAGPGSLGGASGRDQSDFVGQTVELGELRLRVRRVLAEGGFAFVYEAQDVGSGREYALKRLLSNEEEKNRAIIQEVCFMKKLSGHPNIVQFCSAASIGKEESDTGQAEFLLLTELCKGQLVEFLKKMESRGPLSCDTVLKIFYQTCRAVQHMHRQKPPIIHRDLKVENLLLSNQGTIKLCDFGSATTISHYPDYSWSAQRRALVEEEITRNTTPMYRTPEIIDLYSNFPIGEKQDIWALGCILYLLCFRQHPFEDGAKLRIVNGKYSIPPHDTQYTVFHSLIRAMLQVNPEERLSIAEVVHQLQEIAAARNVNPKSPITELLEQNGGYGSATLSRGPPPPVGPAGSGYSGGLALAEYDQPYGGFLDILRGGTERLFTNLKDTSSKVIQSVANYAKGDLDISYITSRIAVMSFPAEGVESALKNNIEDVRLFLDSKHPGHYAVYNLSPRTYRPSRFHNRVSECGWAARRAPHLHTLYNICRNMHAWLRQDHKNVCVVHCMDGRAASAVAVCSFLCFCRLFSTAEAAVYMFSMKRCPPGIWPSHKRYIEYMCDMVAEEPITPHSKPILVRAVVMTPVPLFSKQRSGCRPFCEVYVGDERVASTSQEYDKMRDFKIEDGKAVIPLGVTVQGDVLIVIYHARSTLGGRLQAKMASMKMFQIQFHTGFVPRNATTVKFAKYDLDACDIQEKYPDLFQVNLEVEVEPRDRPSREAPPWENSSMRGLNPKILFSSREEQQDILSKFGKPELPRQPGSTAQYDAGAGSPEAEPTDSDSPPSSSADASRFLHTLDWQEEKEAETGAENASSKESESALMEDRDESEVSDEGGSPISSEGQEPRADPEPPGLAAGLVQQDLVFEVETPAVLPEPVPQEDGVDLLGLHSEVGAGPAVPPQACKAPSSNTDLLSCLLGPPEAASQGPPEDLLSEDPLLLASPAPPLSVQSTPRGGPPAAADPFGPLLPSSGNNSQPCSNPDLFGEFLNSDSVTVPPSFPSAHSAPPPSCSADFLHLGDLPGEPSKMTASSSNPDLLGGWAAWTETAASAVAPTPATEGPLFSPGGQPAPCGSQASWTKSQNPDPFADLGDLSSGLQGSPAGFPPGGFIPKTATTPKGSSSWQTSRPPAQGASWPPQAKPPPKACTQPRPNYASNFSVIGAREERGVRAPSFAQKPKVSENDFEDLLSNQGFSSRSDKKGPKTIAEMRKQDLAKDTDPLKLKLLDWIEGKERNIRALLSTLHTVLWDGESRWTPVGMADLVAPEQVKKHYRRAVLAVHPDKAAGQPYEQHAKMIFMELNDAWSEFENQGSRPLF

[13] = target: Sodium-dependent dopamine transporter (Homo sapiens, UniProt Q01959); test: Selectivity interaction (GPCR panel (PDSP screen)) EUB0000717a SLC6A3
[14] = target: Dual specificity protein kinase CLK2 (Homo sapiens, UniProt P49760); test: Selectivity interaction (NanoBRET assay (HEK293T cells)) EUB0000009b CLK2
[15] = target: Dual specificity tyrosine-phosphorylation-regulated kinase 1A (Homo sapiens, UniProt Q13627); test: Selectivity interaction (NanoBRET assay (HEK293T cells)) EUB0000009b DYRK1A
[16] = target: Dual specificity tyrosine-phosphorylation-regulated kinase 1B (Homo sapiens, UniProt Q9Y463); test: Selectivity interaction (NanoBRET assay (HEK293T cells)) EUB0000009b DYRK1B
[17] = target: Dual specificity tyrosine-phosphorylation-regulated kinase 2 (Homo sapiens, UniProt Q92630); test: Selectivity interaction (NanoBRET assay (HEK293T cells)) EUB0000009b DYRK2
[18] = target: T4, Alpha-1A adrenergic receptor (Homo sapiens) (UniProt P35348); test: Selectivity interaction (CEREP panel (nuclear receptors, ion channels, and […] other enzymes, including 10 kinases, 9 proteases, and 5 phosphodiesterases)) EUB0000195c ADRA1A; settings: at 10 µM
T4 sequence (whole entry): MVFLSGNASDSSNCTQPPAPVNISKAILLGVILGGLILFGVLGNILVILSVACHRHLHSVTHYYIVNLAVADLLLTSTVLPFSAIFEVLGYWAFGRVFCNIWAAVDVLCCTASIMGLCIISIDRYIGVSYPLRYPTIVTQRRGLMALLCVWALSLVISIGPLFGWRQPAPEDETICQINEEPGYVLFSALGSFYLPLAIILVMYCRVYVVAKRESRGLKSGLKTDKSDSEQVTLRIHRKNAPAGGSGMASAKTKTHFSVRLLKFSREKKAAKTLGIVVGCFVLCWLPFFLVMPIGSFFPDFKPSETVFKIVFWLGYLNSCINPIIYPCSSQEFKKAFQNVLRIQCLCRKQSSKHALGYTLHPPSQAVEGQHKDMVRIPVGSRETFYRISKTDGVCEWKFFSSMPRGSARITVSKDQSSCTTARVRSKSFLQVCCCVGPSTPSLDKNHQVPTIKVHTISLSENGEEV

[19] = target: T5, Muscarinic acetylcholine receptor M2 (Homo sapiens) (UniProt P08172); test: Selectivity interaction (CEREP panel (nuclear receptors, ion channels, and […] other enzymes, including 10 kinases, 9 proteases, and 5 phosphodiesterases)) EUB0000195c CHRM2; settings: at 10 µM
T5 sequence (whole entry): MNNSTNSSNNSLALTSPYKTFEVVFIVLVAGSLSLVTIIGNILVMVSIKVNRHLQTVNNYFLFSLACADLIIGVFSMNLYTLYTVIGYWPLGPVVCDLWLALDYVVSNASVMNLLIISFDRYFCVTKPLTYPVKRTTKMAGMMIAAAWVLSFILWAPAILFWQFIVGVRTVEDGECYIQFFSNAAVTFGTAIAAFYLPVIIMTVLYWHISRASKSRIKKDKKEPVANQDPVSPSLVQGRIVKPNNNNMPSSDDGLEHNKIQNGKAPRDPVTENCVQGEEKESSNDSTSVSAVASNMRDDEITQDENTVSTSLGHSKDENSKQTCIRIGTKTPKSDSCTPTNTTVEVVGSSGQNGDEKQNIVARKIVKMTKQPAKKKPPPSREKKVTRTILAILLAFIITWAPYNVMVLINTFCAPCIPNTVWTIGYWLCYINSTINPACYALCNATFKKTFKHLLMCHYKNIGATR

[20] = target: Bromodomain-containing protein 2 (Homo sapiens) (UniProt P25440); test: Selectivity interaction (Bromodomain panel (DSF assay)) EUB0000195c BRD2
[21] = target: T1, Bromodomain-containing protein 4; test: Selectivity interaction (ITC) EUB0000195c BRD4
[22] = target: Bromodomain-containing protein 3 (Homo sapiens) (UniProt Q15059); test: Selectivity interaction (Bromodomain panel (DSF assay)) EUB0000195c BRD3
CREB-binding protein [23] = target: T6, CREB-binding protein (Homo sapiens, UniProt Q92793)
[24] = target: T1, Bromodomain-containing protein 4; test: (§1) Selectivity interaction (Bromodomain panel (DSF assay)) EUB0000195c BRD4
CREB-binding protein [25] = target: T6, CREB-binding protein; remark: listed apart in the source
[26] = target: Histone acetyltransferase p300 (Homo sapiens) (UniProt Q09472); test: Selectivity interaction (DSF assay) EUB0000195c EP300
[27] = target: T1, Bromodomain-containing protein 4; test: as §1; remark: listed apart in the source
[28] = target: Protein-tyrosine kinase 2-beta (Homo sapiens, UniProt Q14289); test: Selectivity interaction (Z’-LYTE assay (SelectScreen Invitrogen)) EUB0000690a PTK2B
[29] = target: Leukocyte tyrosine kinase receptor (Homo sapiens, UniProt P29376); test: Selectivity interaction (Z’-LYTE assay (SelectScreen Invitrogen)) EUB0000690a LTK
[30] = target: Epidermal growth factor receptor (Homo sapiens, UniProt P00533, T790M); test: (§2) Selectivity interaction (Z’-LYTE assay (SelectScreen Invitrogen)) EUB0000690a EGFR
[31] = target: Epidermal growth factor receptor (Homo sapiens, UniProt P00533, L858R); test: as §2
[32] = target: High affinity nerve growth factor receptor (Homo sapiens, UniProt P04629); test: Selectivity interaction (Z’-LYTE assay (SelectScreen Invitrogen)) EUB0000690a NTRK1
[33] = target: Tyrosine-protein kinase Fer (Homo sapiens, UniProt P16591); test: Selectivity interaction (Z’-LYTE assay (SelectScreen Invitrogen)) EUB0000690a FER
[34] = target: NT-3 growth factor receptor (Homo sapiens, UniProt Q16288); test: Selectivity interaction (Z’-LYTE assay (SelectScreen Invitrogen)) EUB0000690a NTRK3
[35] = target: Tyrosine-protein kinase JAK2 (Homo sapiens, UniProt O60674); test: Selectivity interaction (Z’-LYTE assay (SelectScreen Invitrogen)) EUB0000690a JAK2
Activated CDC42 kinase 1 = Activated CDC42 kinase 1 (Homo sapiens, UniProt Q07912); test: Selectivity interaction (Z’-LYTE assay (SelectScreen Invitrogen)) EUB0000690a TNK2
[36] = target: Tyrosine-protein kinase FRK (Homo sapiens, UniProt P42685); test: Selectivity interaction (Z’-LYTE assay (SelectScreen Invitrogen)) EUB0000690a FRK
[37] = target: Tyrosine-protein kinase Fes/Fps (Homo sapiens, UniProt P07332); test: Selectivity interaction (Z’-LYTE assay (SelectScreen Invitrogen)) EUB0000690a FES
Focal adhesion kinase 1 = Focal adhesion kinase 1 (Homo sapiens, UniProt Q05397); test: Selectivity interaction (Z’-LYTE assay (SelectScreen Invitrogen)) EUB0000690a PTK2

Protein-tyrosine kinase 2-beta, sequence (Q14289 whole entry): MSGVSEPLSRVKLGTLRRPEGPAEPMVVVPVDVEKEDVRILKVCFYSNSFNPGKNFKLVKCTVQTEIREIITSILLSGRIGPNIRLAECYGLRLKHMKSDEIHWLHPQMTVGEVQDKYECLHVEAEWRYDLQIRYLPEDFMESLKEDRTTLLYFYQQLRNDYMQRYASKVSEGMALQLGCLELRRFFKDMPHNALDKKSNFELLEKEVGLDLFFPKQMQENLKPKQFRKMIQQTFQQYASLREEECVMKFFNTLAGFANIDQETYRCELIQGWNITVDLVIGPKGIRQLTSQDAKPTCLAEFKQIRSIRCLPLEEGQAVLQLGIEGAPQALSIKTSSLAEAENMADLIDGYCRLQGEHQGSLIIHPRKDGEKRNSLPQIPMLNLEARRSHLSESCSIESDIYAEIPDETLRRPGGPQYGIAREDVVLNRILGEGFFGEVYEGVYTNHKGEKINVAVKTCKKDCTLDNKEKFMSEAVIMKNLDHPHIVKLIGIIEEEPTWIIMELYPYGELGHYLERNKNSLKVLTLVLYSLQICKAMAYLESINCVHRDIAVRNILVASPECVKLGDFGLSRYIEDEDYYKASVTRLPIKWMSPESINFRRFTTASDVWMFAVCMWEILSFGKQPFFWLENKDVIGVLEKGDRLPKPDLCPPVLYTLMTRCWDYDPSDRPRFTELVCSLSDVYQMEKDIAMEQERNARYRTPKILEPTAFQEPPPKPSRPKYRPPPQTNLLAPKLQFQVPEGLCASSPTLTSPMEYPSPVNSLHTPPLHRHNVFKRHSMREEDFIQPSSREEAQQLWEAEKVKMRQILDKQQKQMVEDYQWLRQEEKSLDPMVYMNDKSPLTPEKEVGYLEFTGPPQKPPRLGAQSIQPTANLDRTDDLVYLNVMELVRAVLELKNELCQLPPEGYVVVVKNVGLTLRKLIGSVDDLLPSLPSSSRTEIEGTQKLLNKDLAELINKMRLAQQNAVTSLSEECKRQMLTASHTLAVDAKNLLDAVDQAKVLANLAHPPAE
BMP-2-inducible protein kinase (Homo sapiens), sequence (Q9NSY1 whole entry, looked up): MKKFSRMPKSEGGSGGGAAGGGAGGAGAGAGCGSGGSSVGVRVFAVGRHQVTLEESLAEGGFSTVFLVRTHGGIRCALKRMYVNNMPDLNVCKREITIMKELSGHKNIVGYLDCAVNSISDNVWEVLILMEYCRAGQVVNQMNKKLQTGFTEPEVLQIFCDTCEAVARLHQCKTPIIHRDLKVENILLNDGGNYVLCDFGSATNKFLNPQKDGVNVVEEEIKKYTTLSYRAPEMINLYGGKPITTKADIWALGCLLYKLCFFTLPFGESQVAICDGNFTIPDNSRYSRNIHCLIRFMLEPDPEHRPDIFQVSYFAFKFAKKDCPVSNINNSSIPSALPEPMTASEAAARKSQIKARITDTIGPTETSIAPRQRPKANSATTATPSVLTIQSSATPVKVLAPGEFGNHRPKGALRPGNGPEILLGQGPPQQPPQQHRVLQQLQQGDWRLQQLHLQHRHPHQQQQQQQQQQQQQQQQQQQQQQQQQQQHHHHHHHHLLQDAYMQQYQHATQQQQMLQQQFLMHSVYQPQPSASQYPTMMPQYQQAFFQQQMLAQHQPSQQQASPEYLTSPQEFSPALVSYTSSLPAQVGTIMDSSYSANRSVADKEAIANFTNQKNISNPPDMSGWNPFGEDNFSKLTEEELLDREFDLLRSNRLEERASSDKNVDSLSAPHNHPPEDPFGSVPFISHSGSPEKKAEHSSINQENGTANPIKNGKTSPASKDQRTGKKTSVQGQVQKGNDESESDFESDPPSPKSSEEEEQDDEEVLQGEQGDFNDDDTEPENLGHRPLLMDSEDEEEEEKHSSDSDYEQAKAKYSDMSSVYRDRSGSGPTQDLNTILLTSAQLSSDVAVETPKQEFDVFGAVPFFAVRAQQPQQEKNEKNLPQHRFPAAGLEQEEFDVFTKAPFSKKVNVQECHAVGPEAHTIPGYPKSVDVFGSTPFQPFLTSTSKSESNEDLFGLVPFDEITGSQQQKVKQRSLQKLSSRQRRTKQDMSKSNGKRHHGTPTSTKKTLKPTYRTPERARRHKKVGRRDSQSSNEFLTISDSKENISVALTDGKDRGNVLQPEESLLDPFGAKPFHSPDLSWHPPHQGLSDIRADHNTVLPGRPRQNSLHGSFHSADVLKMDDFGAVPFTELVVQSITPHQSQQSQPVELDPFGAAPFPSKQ
Tyrosine-protein kinase Fes/Fps, sequence (P07332 whole entry): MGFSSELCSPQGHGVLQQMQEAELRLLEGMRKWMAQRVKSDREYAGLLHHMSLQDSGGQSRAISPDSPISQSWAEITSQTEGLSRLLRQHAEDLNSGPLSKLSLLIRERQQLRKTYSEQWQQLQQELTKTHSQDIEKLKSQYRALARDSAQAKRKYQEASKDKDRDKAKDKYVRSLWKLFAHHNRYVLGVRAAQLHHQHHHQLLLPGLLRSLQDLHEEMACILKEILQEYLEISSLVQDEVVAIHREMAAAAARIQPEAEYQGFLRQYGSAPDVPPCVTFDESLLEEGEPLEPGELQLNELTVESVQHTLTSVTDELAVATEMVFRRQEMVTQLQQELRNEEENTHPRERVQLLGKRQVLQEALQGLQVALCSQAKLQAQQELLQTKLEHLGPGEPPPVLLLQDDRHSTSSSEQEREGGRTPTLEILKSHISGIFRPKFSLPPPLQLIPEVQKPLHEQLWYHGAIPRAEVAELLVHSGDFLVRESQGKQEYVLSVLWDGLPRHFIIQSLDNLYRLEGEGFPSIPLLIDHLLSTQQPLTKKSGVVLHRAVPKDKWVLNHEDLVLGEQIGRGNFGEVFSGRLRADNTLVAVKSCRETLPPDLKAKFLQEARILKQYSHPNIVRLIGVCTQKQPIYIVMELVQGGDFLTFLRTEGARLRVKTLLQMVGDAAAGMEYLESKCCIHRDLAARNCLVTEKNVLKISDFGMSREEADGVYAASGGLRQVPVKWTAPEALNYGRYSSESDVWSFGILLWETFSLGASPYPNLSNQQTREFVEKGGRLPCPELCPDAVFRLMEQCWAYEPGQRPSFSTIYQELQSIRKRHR
Tyrosine-protein kinase JAK2, sequence (O60674 whole entry): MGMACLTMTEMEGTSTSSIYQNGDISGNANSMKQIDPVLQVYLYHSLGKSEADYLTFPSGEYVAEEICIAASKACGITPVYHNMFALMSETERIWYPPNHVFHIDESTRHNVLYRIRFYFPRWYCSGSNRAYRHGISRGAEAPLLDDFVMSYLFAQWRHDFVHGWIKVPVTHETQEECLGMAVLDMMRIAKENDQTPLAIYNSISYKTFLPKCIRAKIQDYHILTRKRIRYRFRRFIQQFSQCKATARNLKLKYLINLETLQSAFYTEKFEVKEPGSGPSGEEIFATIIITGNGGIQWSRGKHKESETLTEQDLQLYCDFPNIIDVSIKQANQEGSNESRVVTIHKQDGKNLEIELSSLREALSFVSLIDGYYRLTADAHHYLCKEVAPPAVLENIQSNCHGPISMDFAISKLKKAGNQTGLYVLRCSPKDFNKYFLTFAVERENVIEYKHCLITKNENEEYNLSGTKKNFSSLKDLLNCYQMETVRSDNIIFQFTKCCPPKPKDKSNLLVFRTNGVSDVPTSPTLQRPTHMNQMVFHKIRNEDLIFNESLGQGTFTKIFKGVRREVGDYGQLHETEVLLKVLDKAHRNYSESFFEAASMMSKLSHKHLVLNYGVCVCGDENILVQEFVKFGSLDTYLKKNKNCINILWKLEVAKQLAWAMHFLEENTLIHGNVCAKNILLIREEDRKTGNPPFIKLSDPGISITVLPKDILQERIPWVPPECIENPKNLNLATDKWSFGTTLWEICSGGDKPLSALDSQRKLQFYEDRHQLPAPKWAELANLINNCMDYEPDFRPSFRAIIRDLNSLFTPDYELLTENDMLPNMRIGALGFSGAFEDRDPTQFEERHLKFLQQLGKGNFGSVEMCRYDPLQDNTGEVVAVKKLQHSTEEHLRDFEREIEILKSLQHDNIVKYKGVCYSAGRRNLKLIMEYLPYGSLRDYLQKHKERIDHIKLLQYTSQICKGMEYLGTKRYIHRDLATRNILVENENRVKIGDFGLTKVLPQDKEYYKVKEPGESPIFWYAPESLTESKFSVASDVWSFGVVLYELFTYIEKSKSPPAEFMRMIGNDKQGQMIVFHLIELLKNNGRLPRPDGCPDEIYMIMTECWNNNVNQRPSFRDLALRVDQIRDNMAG
Bromodomain-containing protein 3 (Homo sapiens), sequence (Q15059 2-726 limits assumed): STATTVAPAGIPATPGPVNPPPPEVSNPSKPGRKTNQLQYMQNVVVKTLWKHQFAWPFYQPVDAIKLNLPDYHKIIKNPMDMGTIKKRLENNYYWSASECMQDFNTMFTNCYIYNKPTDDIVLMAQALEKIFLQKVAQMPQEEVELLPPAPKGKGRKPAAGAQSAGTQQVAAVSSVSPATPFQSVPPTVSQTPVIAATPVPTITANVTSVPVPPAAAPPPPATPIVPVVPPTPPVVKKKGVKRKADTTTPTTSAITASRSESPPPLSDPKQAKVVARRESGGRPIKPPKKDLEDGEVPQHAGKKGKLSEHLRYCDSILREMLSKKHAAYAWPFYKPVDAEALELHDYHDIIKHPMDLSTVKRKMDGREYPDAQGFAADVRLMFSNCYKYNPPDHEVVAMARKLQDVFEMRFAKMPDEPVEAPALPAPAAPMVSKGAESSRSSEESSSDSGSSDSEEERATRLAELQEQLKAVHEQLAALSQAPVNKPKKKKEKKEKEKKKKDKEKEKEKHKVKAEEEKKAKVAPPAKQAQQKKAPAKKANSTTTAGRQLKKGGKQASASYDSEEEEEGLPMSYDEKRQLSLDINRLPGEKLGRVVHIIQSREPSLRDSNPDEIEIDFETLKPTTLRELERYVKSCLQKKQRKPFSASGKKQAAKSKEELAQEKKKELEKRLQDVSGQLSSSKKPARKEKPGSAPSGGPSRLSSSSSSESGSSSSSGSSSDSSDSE
Sigma intracellular receptor 2, sequence (Q5BJF2 whole entry): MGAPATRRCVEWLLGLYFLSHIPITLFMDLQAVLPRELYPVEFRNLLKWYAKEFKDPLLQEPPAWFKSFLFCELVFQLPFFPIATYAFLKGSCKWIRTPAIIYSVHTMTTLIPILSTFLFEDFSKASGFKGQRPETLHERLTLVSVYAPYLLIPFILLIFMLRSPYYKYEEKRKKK

## CNCCN1CCC(OCc2ccccc2)CC1
[1]
  % activity remaining: 78%
[2]
  inhibition: 31%
[3]
  Ki: 54 nM
[4]
  Ki: 574 nM
[5]
  dTm: 3.3 K
[6]
  dTm: 11.3 K

## COc1cc(C#N)ccc1S(=O)(=O)Nc1ccc2c(c1)cc(C)c(=O)n2C
[7]
  Kd: 3900 nM
[8]
  mean % of control: 62%
[9]
  mean % of control: 80%
[10]
  mean % of control: 61%

## O=C1c2ccc(Nc3ccc(F)cc3F)cc2CCc2ccc(OC[C@H](O)CO)cc21 [Skepinone-L]
[11]
  % of control: 37%
[12]
  % of control: 53%
[13]
  Ki: > 10000 nM

## Cn1cc(-c2ccc3occ(-c4ccccc4-c4ccccc4)c3n2)cn1
[14]
  Ki: > 10000 nM
[15]
  Ki: > 10000 nM
[16]
  Ki: > 10000 nM
[17]
  Ki: > 10000 nM

## CCC(=O)N1CCOc2c(cc(-c3ccc(OC)c(OC)c3)cc2OC[C@H]2CCCN(C)C2)C1
[18]
  % of inhibition: 89%
[19]
  % of inhibition: 67%
[20]
  dTm: 1.35 K
[21]
  Kd: > 20000 nM
[22]
  dTm: 1.55 K
CREB-binding protein [23]
  Kd: 170 nM
[24]
  dTm: 2.09 K
CREB-binding protein [25]
  dTm: 7.8 K
[26]
  dTm: 8.6 K
[27]
  dTm: 0.58 K

## C[C@H]1Oc2cc(cnc2N)-c2c(nn(C)c2C#N)CN(C)C(=O)c2ccc(F)cc21 [LORLATINIB]
[28]
  Ki: 14 nM
[29]
  Ki: 2.7 nM
[30]
  Ki: 319 nM
[31]
  Ki: 56 nM
[32]
  Ki: 24 nM
[33]
  Ki: 3.3 nM
[34]
  Ki: 46 nM
[35]
  Ki: 529 nM
Activated CDC42 kinase 1
  Ki: 17 nM
[36]
  Ki: 53 nM
[37]
  Ki: 6 nM
Focal adhesion kinase 1
  Ki: 17 nM
